Experimental data taken from patent US6844174B2, “Fermentation process for lipstatin and method of extracting lipstatin from a fermentation broth” (Biogal Gyogyszergyar Rt., priority 2001, dated 2005).

Test system: Streptomyces toxytricini
Assay: toxic level of linoleic acid in liquid culture of Streptomyces toxytricini
Format: cell-based
From the text: With Streptomyces toxytricini, the toxic level of linoleic acid in liquid culture is about 2,300-3,000 ppm. […] For this reason, the pH of lipstatin fermentation was controlled so that the linoleic acid being liberated from fats and oils was enough for the lipstatin biosynthesis but not raised to a toxic level.

## CCCCC/C=C\C/C=C\CCCCCCCC(=O)O [linoleic acid]
  toxic level of linoleic acid in liquid culture: 2,300-3,000 ppm
